Consider 2 compounds from US9968566B2, “Pharmaceutical composition for prophylaxis and/or treatment of corneal and conjunctival diseases or presbyopia containing stilbene compound as active ingredient” (KEIO UNIVERSITY, priority 2014, dated 2018).

Several values for one entry are separate records, joined by “and”; a condition that tells them apart may be missing. Equal values may be shown once.

Series [1] can be described thus: Electron spin resonance (ESR) measurement test, amount of tyrosine radical. The class given is biochemical. The note with it: 5 μM, 50 μM and 500 μM added to standard solution; activity order R<DR<DHR. The protocol:
(§1) Resveratrol (R), as well as dimethyl resveratrol (DR) and dimethylhydroxy resveratrol (DHR), which are compounds of the present invention, were added to radicals serving as standard substances, and the amounts of remaining tyrosine radicals and hydroxyl radicals were assessed. Specifically, a standard solution comprising a 50 mM NaPi buffer (pH 7.4), 10 mM DMPO, 1.6 mM myoglobin, and 1 mM H2O2 was prepared using myoglobin as a tyrosine radical. Further, a standard solution comprising a 50 mM NaPi buffer (pH 7.4), 10 mM DMPO, 0.1 mM Fe^2+-EDTA, and 1 mM H2O2 was prepared using Fe^2+-EDTA as a hydroxyl radical. […] The ESR was set as follows: microwave power: 10 mW; adjusted frequency: 100 KHz; adjusted magnetic field: 0.1 G; receiver gain: 1000; and time constant: 0.3 s. FIGS. 1(A) and 1(B) show the results.

The nature of series [2]: Electron spin resonance (ESR) measurement test, amount of hydroxyl radical. It counts as biochemical. The note with it: 5 μM, 50 μM and 500 μM added to standard solution; activity order R<DR<DHR. As to the method:
as §1

The subject of series [3] is keratoconjunctival epithelial damage caused by dry eye. Description: Therapeutic efficacy test using smoking rat (Example 3): tear volume and fluorescein staining score. The note with it: smoking rats, 300 μM PBS solution, 5 μL instilled 4 times per day for 11 days; for tear volume (cotton thread test, length of wet portion): smoking group 10.0±5.0, non-smoking 14.0±9.1. It counts as in vivo, Sprague-Dawley rats. The protocol: In this experiment, both eyes of each animal were used. The same drug solution was administered to both eyes of each animal, and a comparison was made among groups.
Six-week-old male Sprague-Dawley rats were subjected to smoking treatment to develop dry-eye, presbyopia models.
Specifically, a treatment in which mainstream smoke (300 mL) was added to a rat-containing chamber 6 times at 30-minute intervals was performed for 12 days to induce keratoconjunctival epithelial damage. […] Each group consisted of 4 animals (8 eyes).
After the 11-day smoking treatment, the body weight, tear volume, fluorescent staining score, and crystalline lens hardness were measured.
To determine the tear volume, tears accumulated in the cornea of rat were measured in accordance with the cotton thread test. Specifically, after the rats were anesthetized with ocular instillation of oxybuprocaine hydrochloride, a cotton thread was inserted between the palpebra and eyeball for 60 seconds, and tears were collected. The tear volume was assessed by measuring the length (mm) of the wet portion in the cotton thread.
After the completion of ocular instillation, a damaged portion in corneal epithelium was stained with a fluorescent dye (fluorescein). Then, the degree of corneal epithelial damage was assessed based on the following criteria by scoring each section of the entire cornea, which was divided into a total of 9 sections, i.e., upper, middle, and lower, and left, center, and right sections, and calculating the total value. Thereafter, the score values were compared among the groups for analysis. For statistical analysis, a significant difference test was performed by using the Dunnett method in terms of each group with respect to the smoking group. For unbiased evaluation, the content of the drug solution administered to each group was blinded from the initiation of ocular instillation to the scoring of the corneal epithelial damage, and collated after scoring.
Evaluation Criteria for Scoring of Fluorescein Staining of Corneal Epithelium
• 0: not stained (no punctate fluorescence) • 1: weak punctate fluorescence • 2: relatively intense punctate fluorescence • 3: strong punctate fluorescence The crystalline lens hardness was measured by combining an electronic weighing scale and height gauge. A crystalline lens whose minor axis length had been previously measured was placed on an electronic weighing scale, and the weight was set to 0. The handle of a height gauge was used above the crystalline lens to allow the end portion to be in contact with the crystalline lens. Further using the handle, the end portion was lowered about 5 to 10% of the minor axis length to apply a pressure on the crystalline lens. The change in the weight at this time was measured with the electronic weighing scale, and the weight was divided by the moving distance measured with the height gauge. The resulting value was considered to be hardness. A larger value represents more hardness.
For statistical analysis of the body weight, tear volume, and crystalline lens hardness, a significant difference test was performed using the Dunnett method in terms of each group with respect to the smoking group.

A further series deals with crystalline lens. Description: Smoking rat presbyopia model (Example 3): crystalline lens hardness. The note with it: smoking rats, 300 μM PBS solution, 5 μL instilled 4 times per day for 11 days; smoking group 1.04±0.05, non-smoking 0.75±0.04. It counts as in vivo, Sprague-Dawley rats. The protocol: Six-week-old male Sprague-Dawley rats were subjected to smoking treatment to develop dry-eye, presbyopia models. Specifically, a treatment in which mainstream smoke (300 mL) was added to a rat-containing chamber 6 times at 30-minute intervals was performed for 12 days to induce keratoconjunctival epithelial damage. […] Each group consisted of 4 animals (8 eyes). After the 11-day smoking treatment, the body weight, tear volume, fluorescent staining score, and crystalline lens hardness were measured. • 0: not stained (no punctate fluorescence) • 1: weak punctate fluorescence • 2: relatively intense punctate fluorescence • 3: strong punctate fluorescence The crystalline lens hardness was measured by combining an electronic weighing scale and height gauge. A crystalline lens whose minor axis length had been previously measured was placed on an electronic weighing scale, and the weight was set to 0. The handle of a height gauge was used above the crystalline lens to allow the end portion to be in contact with the crystalline lens. Further using the handle, the end portion was lowered about 5 to 10% of the minor axis length to apply a pressure on the crystalline lens. The change in the weight at this time was measured with the electronic weighing scale, and the weight was divided by the moving distance measured with the height gauge. The resulting value was considered to be hardness. A larger value represents more hardness. For statistical analysis of the body weight, tear volume, and crystalline lens hardness, a significant difference test was performed using the Dunnett method in terms of each group with respect to the smoking group.

Series [4] in a line: Stability test at 25° C. and 60% RH, amount by HPLC. The class given is physicochemical. The note with it: 25° C. 60% RH; for amount of compound remaining, average: average of three runs; for amount of compound remaining, single runs: first/second/third time. The protocol: After a constant period of time, the amount of each compound was measured by HPLC to evaluate the stability. The amount of the compound was calculated in accordance with: (The amount of compound after a constant period of time)/(the amount of compound at the time when the test was initiated)×100(%).

Series [5] can be described thus: Measurement of radical scavenging activity (galvinoxyl radical, stopped flow method). It counts as biochemical. As to conditions: acetonitrile, deaerated with argon, absorbance at 428 nm.
Protocol: Unlike active oxygen, a galvinoxyl radical (GO•), which is a relatively stable organic oxygen radical having a characteristic peak absorption at 428 nm, may be used to perform kinetic analysis in terms of the radical scavenging ability of antioxidants using ultraviolet visible spectroscopy.
In this experiment, the radical scavenging rate was measured by a stopped flow method. The following reagent was used: • Acetonitrile (Nacalai Tesque, Inc., 00433-95); and • Galvinoxyl Radical (Aldrich, G30-7).
A solution of GO• in acetonitrile (about 2.4×10^−6 M) was bubbled with argon for 7 minutes to remove molecular oxygen. […] Subsequently, the acetonitrile solutions of GO• and the compounds were simultaneously mixed to measure changes in the peak absorption of GO• (at 428 nm) over time by a stopped flow method.
Under conditions in which the concentration of each antioxidant is 10 times or more than that of GO• ([Antioxidant agent]>10[GO•]), the reduction in the absorbance at 428 nm derived from GO• follows the pseudo-first-order kinetics (equation (1)) with respect to the concentration of each antioxidant agent (antioxidant): −d[GO•]/dt=kobs[GO•] […] Integration of both sides of equation (1) leads to equation (2): ln([GO•]/[GO•]0)=−kobst (2), wherein [GO•]o is a concentration of GO• when t=0. […]
Where [6] appears, read: 10 mM solution (10% DMSO in water), 1 week.
Setting [7] is: 10 mM solution (10% DMSO in water), 2 weeks.
The mark [8] stands for this setting: 10 mM solution (10% DMSO in water), 1 day.
[9] abbreviates: 10 mM solution (10% DMSO in water), 2 days.
The mark [10] stands for this setting: 10 mM solution (10% DMSO in water), 3 days.

Consider `Oc1ccc(/C=C/c2cc(O)cc(O)c2)cc1` [Resveratrol, trans-1,2-(3,4′,5-trihydroxydiphenyl)ethylene, reference compound], for which, in series [1], the “radical generation (amount of tyrosine radical, ESR)” value was “reduced radical generation in a concentration-dependent manner”. Further, the “radical generation (amount of hydroxyl radical, ESR)” value in series [2] is recorded as “reduced radical generation in a concentration-dependent manner”. Also, in series [3], the “tear volume (cotton thread test, length of wet portion)” value is reported as 6.9±4.3 mm. Further, the “crystalline lens elasticity (hardness; larger value = harder)” value in the series on crystalline lens came out at 0.87±0.06. Besides, the “amount of compound remaining, average” value in series [4] (setting [6]) came out at 82%; in series [4] (setting [7]), 64%; in series [4] (setting [8]) it was 98%; in series [4] (setting [9]) it was 95%; in series [4] (setting [10]), 91%; in series [4] (solid, 1 week), 99%. In addition, the “amount of compound remaining, average” value stood at 95% in series [4] (solid, 2 weeks); 91% in series [4] (solid, 3 weeks); 86% in series [4] (solid, 4 weeks). The “amount of compound remaining, single runs” value in series [4] (setting [6]) is 80% and 82% and 85%; in series [4] (setting [7]) it was 59% and 65% and 68%; in series [4] (setting [8]), 98% and 99% and 96%; in series [4] (setting [9]), 95% and 96%; in series [4] (setting [10]), 90% and 93%; in series [4] (solid, 1 week) it was 100% and 101% and 97%. For the same compound, the “amount of compound remaining, single runs” value in series [4] (solid, 2 weeks) was 96% and 94%; in series [4] (solid, 3 weeks), 91% and 90% and 92%; in series [4] (solid, 4 weeks), 88% and 86% and 85%.
In the case of `C/C(=C(/C)c1ccc(O)c(O)c1)c1cc(O)cc(O)c1` [DHR, (E)-4-[3-(3,5-dihydroxyphenyl)but-2-en-2-yl]benzene-1,2-diol], the “radical generation (amount of tyrosine radical, ESR)” value in series [1] was “reduced radical generation in a concentration-dependent manner”. Besides, the “radical generation (amount of hydroxyl radical, ESR)” value in series [2] is “reduced radical generation in a concentration-dependent manner”. For the same compound, the “average fluorescein score (fluorescent staining score)” value in series [3] (smoking group 3.7±1.0, non-smoking 0.8±1.0) came to 1.5±0.5. Besides, the “tear volume (cotton thread test, length of wet portion)” value in series [3] is listed as 13.8±11.1 mm. Also, the “crystalline lens elasticity (hardness; larger value = harder)” value in the series with crystalline lens was found to be 0.75±0.05. Further, in series [5], the “radical scavenging activity (constant kHT of rate of hydrogen transfer to GO•)” value worked out at 2300 M⁻¹ s⁻¹.
